Test results: patent US12097200B2, “Combination of BI853520 with chemotherapeutic drugs” (INXMED (NANJING) CO., LTD., priority 2020, dated 2024)
Values joined by “and” are separate entries in the source; they are usually repeats but may differ in a detail not shown here. Identical values can stand only once. “Also recorded” adds a separate entry of the source.

What was measured:
[1] = test system: GXA 3039 gastric cancer PDX model
Description: Mice were housed in individual ventilated cages ([sequence] Sealsafe™-IVC-System, [sequence], Hohenpeissenberg, Germany), and type II or III cages were selected according to the number of experimental animals. The cages were under the conditions: 14L:10D light-dark cycle, air exchange (AC) rate of 60-65 AC/hr in the cage, 25±1° C. and 40-70% humidity. […] Water and diet were changed twice a week, and all materials were autoclaved before use.
Tumor fragments were implanted subcutaneously into the flank of female pre-study mice. […] Animals that were not randomized were euthanized. The date of randomization was designated as day 0 of the test, and dosing began on day 1. […] If less than 70% of the original number of mice survived (i.e. less than 6 out of 8), the entire group was terminated. […] Tolerability was assessed using the group with the largest median body weight loss (BWL) among groups.
Inhibition of tumor growth was determined by calculating TGI.
Additional endpoints used to assess efficacy included: time to tumor volume doubling/quadrupling and tumor growth delay/time to tumor progression/tumor repopulation.
Time to tumor volume doubling/quadrupling: The time to tumor volume doubling/quadrupling (Td/Tq) for the test and control groups was defined as the time interval (in days) required for each group to reach 200%/400% of the median RTV. The relative volume of a single tumor on day X (RTVx [%]) was obtained by dividing the absolute volume of the tumor on day X (Tx) by the absolute volume of the tumor on day 0 (T0) and then multiplying it by 100, as follows:
Tumor growth delay/time to tumor progression/tumor repopulation: To assess the difference in time to tumor progression/tumor repopulation after tumor regression during the no-dose observation period (tumor growth delay, TGD), Kaplan-Meier survival analysis was used. A relative tumor volume of 400% was defined as the endpoint.
The control group for oral administration was 0.5% Natrosol. The control group for intravenous administration was 0.9% saline. Each dose was 10 ml/kg.
Data were used for statistical analysis at the end of the study. The one-tailed nonparametric Mann-Whitney-Wilcoxon U test was used with the significance level a set at 0.05. The p-values obtained from the U-test were adjusted using the Bonferroni-Holm correction.
To assess the statistical significance of differences in time to tumor progression/tumor growth delay (TGD) using 400% of RTV as the trial endpoint, the Kaplan-Meier survival mode statistic was used in conjunction with the log-rank Mantel-Cox test for pairwise comparisons.
Additionally, to assess tolerance to treatment, a two-tailed nonparametric Mann-Whitney-Wilcoxon U test was performed using body weights determined at the end of the dosing period (i.e., on the day TGI values were calculated).
By convention, p-values≤0.05 represented significant tumor inhibition or weight loss.

KYSE-70 cells = assay: Antitumor activity in mouse xenograft model of human esophageal cancer (KYSE-70); format: in vivo; conditions: KYSE-70 xenograft, combination of both
HS 746T cells = assay: Antitumor activity in mouse xenograft model of human gastric cancer (HS 746T); format: in vivo; conditions: HS 746T xenograft, combination of both
Description: (§1) For tumor volume, absolute values were used.
(§2) Appropriate statistical methods were used for evaluation.
HS 746T: Approximately 6 week old mice.

KYSE-270 cells = assay: Antitumor activity in mouse xenograft model of human esophageal cancer (KYSE-270); format: in vivo; conditions: KYSE-270 xenograft
Description: as §1, §2
Mice were approximately 8-10 weeks old.
KYSE-270 was a cell line for esophageal cancer (Public Health England, Cat. No. 94072021).

NCI-H520 cells = conditions: NCI-H520 xenograft, day 22, combination of both
Description: Mice were approximately 6 weeks old. There were 5 mice in each group.
The cell concentration of the culture was maintained between 8×10^6 to 12×10^7 cells/tissue culture flask.
Cisplatin was dissolved in 0.9% saline.
Statistical evaluation was performed using the Student's t-test function in Microsoft Excel, utilizing a two-tailed distribution and a two-sample equal variance type.

[2] = BI 853520 50 mg/kg qd, docetaxel 10 mg/kg q7d
[3] = BI 853520 50 mg/kg qd, paclitaxel 10 mg/kg q7d, combination of both
[4] = BI 853520 50 mg/kg qd, cisplatin 5 mg/kg IP q7d

SMILES: CC(=O)O[C@@]12CO[C@@H]1C[C@H](O)[C@@]1(C)C(=O)[C@H](O)C3=C(C)[C@@H](OC(=O)[C@H](O)[C@@H](NC(=O)OC(C)(C)C)c4ccccc4)C[C@@](O)([C@@H](OC(=O)c4ccccc4)[C@H]21)C3(C)C [Docetaxel, reference compound]
- Td (time to tumor volume doubling) ([1]; GXA 3039 PDX, time to 200% of median RTV, doses as Table 8): 8.5 days
- Tq (time to tumor volume quadrupling) ([1]; GXA 3039 PDX, time to 400% of median RTV, nr = not reached until end of test, doses as Table 8): 108.0 days
- TGI [%] (d) ([1]; GXA 3039 gastric cancer PDX, day 36, BI 853520 50 mg/kg/d PO days 1-35, docetaxel 10 mg/kg IV days 1, 8, 15, 22, 29, combination of both): 113% and 113(36) %
- Survival rate ([1]; female, BomTac:NMRI-Foxn1nu, mouse, in vivo): 2/8
- Median BWL maximum ([1]; mouse, in vivo): 2.1%
- Median BWL maximum, day ([1]; mouse, in vivo): 2 days
- Median tumor volume (KYSE-70 cells; day 42, BI 853520 50 mg/kg qd by gavage, docetaxel 10 mg/kg q7d i.v.): 73 mm^3
- Antitumor effect (in words) (KYSE-70 cells; [2]): had inhibitory effect
- Change in median body weight (KYSE-70 cells; [2]): 5.6%
- TGI (KYSE-70 cells; [2]): 100%
- Median tumor volume (HS 746T cells; day 24 (withdrawal on day 28), BI 853520 50 mg/kg qd by gavage, docetaxel 10 mg/kg q7d i.v.): 0 mm^3
- Antitumor effect (in words) (HS 746T cells; [2]): had inhibitory effect
- Change in median body weight (HS 746T cells; [2]): 6.7%
- TGI (HS 746T cells; [2]): 108%

SMILES: CC(=O)O[C@H]1C(=O)[C@@]2(C)[C@H]([C@H](OC(=O)c3ccccc3)[C@]3(O)C[C@H](OC(=O)[C@H](O)[C@@H](NC(=O)c4ccccc4)c4ccccc4)C(C)=C1C3(C)C)[C@]1(OC(C)=O)CO[C@@H]1C[C@@H]2O [Paclitaxel]
- Median tumor volume (KYSE-270 cells; day 13, BI 853520 50 mg/kg qd by gavage, paclitaxel 10 mg/kg q7d i.v., combination of both): 1033 mm^3
- TGI (KYSE-270 cells; day 13, BI 853520 50 mg/kg qd, paclitaxel 10 mg/kg q7d, combination of both): 2%
- Antitumor effect (in words) (KYSE-270 cells; [3]): no effect on tumor growth; also recorded: had no effect
- Change in median body weight (KYSE-270 cells; [3]): −9.7%
- Tumor regression (animals with regression/animals in group) (KYSE-270 cells; [3]): no tumor regression and 0/7
- Animal body weight decreased by (KYSE-270 cells; paclitaxel 10 mg/kg q7d, value is a decrease): 9.7%

SMILES: N.N.[Cl][Pt][Cl] [Cisplatin, reference compound]
- Median tumor volume (NCI-H520 cells; BI 853520 50 mg/kg qd by gavage, cisplatin 5 mg/kg IP once a week): 228 mm^3
- Median TGI (NCI-H520 cells; [4]): 74%
- Tumor regression (animals with regression/animals in group) (NCI-H520 cells; [4]): 0/7
